Measured values published in patent US10202361B2, “Pyridazinones as herbicides” (E I DU PONT DE NEMOURS AND COMPANY, priority 2014, dated 2019).

How the values were obtained:
Test in all cases: Test D pre-/postemergence controlled growth environment herbicide test
Format in all cases: in vivo
Conditions in all cases: scale 0 to 100
[1] = tested on: Russian thistle (Salsola kali)
Method in brief: (§1)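 Preemergence: seeds sown in silt loam soil and sprayed with test chemicals in a non-phytotoxic solvent mixture containing surfactant. Postemergence: plants grown in peat/vermiculite planting medium and sprayed at 2 to 18 cm (1- to 4-leaf stage). Visual rating versus controls after 14 to 21 d, 0 (no effect) to 100 (complete control).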

[2] = tested on: barley, spring (spring barley, Hordeum vulgare)
Method in brief: as §1

[3] = tested on: blackgrass (Alopecurus myosuroides)
Method in brief: as §1

[4] = tested on: canarygrass (Phalaris minor)
Method in brief: as §1

[5] = tested on: deadnettle (henbit deadnettle, Lamium amplexicaule)
Method in brief: as §1

[6] = tested on: field violet (Viola arvensis)
Method in brief: as §1

[7] = tested on: galium (catchweed bedstraw, Galium aparine)
Method in brief: as §1

kochia (Kochia scoparia) = tested on: kochia (Kochia scoparia)
Method in brief: as §1

[8] = tested on: lambsquarters (Chenopodium album)
Method in brief: as §1

[9] = tested on: ryegrass, Italian (Italian ryegrass, Lolium multiflorum)
Method in brief: as §1

[10] = tested on: wheat, spring (spring wheat, Triticum aestivum)
Method in brief: as §1

Compound `Cc1cc(=O)n(-c2ccc(F)cc2)nc1Oc1ccnc(C(F)(F)F)c1` [Compound 14, 2-(4-fluorophenyl)-5-methyl-6-[[2-(trifluoromethyl)-4-pyridinyl]oxy]-3 (2H)-pyridazinone] has a Plant response rating ([1]; Postemergence, 16 g ai/ha) of 20, a Plant response rating ([1]; Postemergence, 31 g ai/ha) of 10 and a Plant response rating ([1]; Postemergence, 62 g ai/ha) of 15. For the same compound, the Plant response rating ([1]; Postemergence, 125 g ai/ha) was 20, the Plant response rating ([1]; Postemergence, 250 g ai/ha) was 35 and the Plant response rating ([1]; Preemergence, 16 g ai/ha) was 0. For the same compound, the Plant response rating ([1]; Preemergence, 31 g ai/ha) was 50, the Plant response rating ([1]; Preemergence, 62 g ai/ha) was 85 and the Plant response rating ([1]; Preemergence, 125 g ai/ha) was 50. For the same compound, the Plant response rating ([1]; Preemergence, 250 g ai/ha) was 95, the Plant response rating ([2]; Postemergence, 16 g ai/ha) was 5 and the Plant response rating ([2]; Postemergence, 31 g ai/ha) was 10. It also gave a Plant response rating ([2]; Postemergence, 62 g ai/ha) of 15, a Plant response rating ([2]; Postemergence, 125 g ai/ha) of 20 and a Plant response rating ([2]; Postemergence, 250 g ai/ha) of 20. It also gave a Plant response rating ([2]; Preemergence, 16 g ai/ha) of 5, a Plant response rating ([2]; Preemergence, 31 g ai/ha) of 10 and a Plant response rating ([2]; Preemergence, 62 g ai/ha) of 5. It also gave a Plant response rating ([2]; Preemergence, 125 g ai/ha) of 15, a Plant response rating ([2]; Preemergence, 250 g ai/ha) of 5 and a Plant response rating ([3]; Postemergence, 16 g ai/ha) of 5. For the same compound, the Plant response rating ([3]; Postemergence, 31 g ai/ha) was 10, the Plant response rating ([3]; Postemergence, 62 g ai/ha) was 10 and the Plant response rating ([3]; Postemergence, 125 g ai/ha) was 10. The Plant response rating ([3]; Postemergence, 250 g ai/ha) was 10, the Plant response rating ([3]; Preemergence, 16 g ai/ha) was 0 and the Plant response rating ([3]; Preemergence, 31 g ai/ha) was 0. For the same compound, the Plant response rating ([3]; Preemergence, 62 g ai/ha) was 10, the Plant response rating ([3]; Preemergence, 125 g ai/ha) was 20 and the Plant response rating ([3]; Preemergence, 250 g ai/ha) was 70. It also gave a Plant response rating ([4]; Postemergence, 16 g ai/ha) of 15, a Plant response rating ([4]; Postemergence, 31 g ai/ha) of 15 and a Plant response rating ([4]; Postemergence, 62 g ai/ha) of 15. It also gave a Plant response rating ([4]; Postemergence, 125 g ai/ha) of 20, a Plant response rating ([4]; Postemergence, 250 g ai/ha) of 25 and a Plant response rating ([4]; Preemergence, 16 g ai/ha) of 5. The Plant response rating ([4]; Preemergence, 31 g ai/ha) was 5, the Plant response rating ([4]; Preemergence, 62 g ai/ha) was 20 and the Plant response rating ([4]; Preemergence, 125 g ai/ha) was 35. For the same compound, the Plant response rating ([4]; Preemergence, 250 g ai/ha) was 80, the Plant response rating ([5]; Postemergence, 16 g ai/ha) was 50 and the Plant response rating ([5]; Postemergence, 31 g ai/ha) was 60. It also gave a Plant response rating ([5]; Postemergence, 62 g ai/ha) of 60, a Plant response rating ([5]; Postemergence, 125 g ai/ha) of 65 and a Plant response rating ([5]; Postemergence, 250 g ai/ha) of 80. It also gave a Plant response rating ([5]; Preemergence, 16 g ai/ha) of 60, a Plant response rating ([5]; Preemergence, 31 g ai/ha) of 15 and a Plant response rating ([5]; Preemergence, 62 g ai/ha) of 40. For the same compound, the Plant response rating ([5]; Preemergence, 125 g ai/ha) was 65, the Plant response rating ([5]; Preemergence, 250 g ai/ha) was 100 and the Plant response rating ([6]; Postemergence, 16 g ai/ha) was 60. For the same compound, the Plant response rating ([6]; Postemergence, 31 g ai/ha) was 70, the Plant response rating ([6]; Postemergence, 62 g ai/ha) was 65 and the Plant response rating ([6]; Postemergence, 125 g ai/ha) was 100. The Plant response rating ([6]; Postemergence, 250 g ai/ha) was 100, the Plant response rating ([6]; Preemergence, 16 g ai/ha) was 85 and the Plant response rating ([6]; Preemergence, 31 g ai/ha) was 95. For the same compound, the Plant response rating ([6]; Preemergence, 62 g ai/ha) was 100, the Plant response rating ([6]; Preemergence, 125 g ai/ha) was 95 and the Plant response rating ([6]; Preemergence, 250 g ai/ha) was 100. For the same compound, the Plant response rating ([7]; Postemergence, 16 g ai/ha) was 60, the Plant response rating ([7]; Postemergence, 31 g ai/ha) was 60 and the Plant response rating ([7]; Postemergence, 62 g ai/ha) was 60. It also gave a Plant response rating ([7]; Postemergence, 125 g ai/ha) of 65, a Plant response rating ([7]; Postemergence, 250 g ai/ha) of 75 and a Plant response rating ([7]; Preemergence, 16 g ai/ha) of 0. It also gave a Plant response rating ([7]; Preemergence, 31 g ai/ha) of 0, a Plant response rating ([7]; Preemergence, 62 g ai/ha) of 0 and a Plant response rating ([7]; Preemergence, 125 g ai/ha) of 5. The Plant response rating (kochia (Kochia scoparia); Postemergence, 16 g ai/ha) was 60, the Plant response rating (kochia (Kochia scoparia); Postemergence, 31 g ai/ha) was 60 and the Plant response rating (kochia (Kochia scoparia); Postemergence, 62 g ai/ha) was 65. The Plant response rating (kochia (Kochia scoparia); Postemergence, 125 g ai/ha) was 85, the Plant response rating (kochia (Kochia scoparia); Postemergence, 250 g ai/ha) was 90 and the Plant response rating (kochia (Kochia scoparia); Preemergence, 16 g ai/ha) was 35. For the same compound, the Plant response rating (kochia (Kochia scoparia); Preemergence, 31 g ai/ha) was 65, the Plant response rating (kochia (Kochia scoparia); Preemergence, 62 g ai/ha) was 95 and the Plant response rating (kochia (Kochia scoparia); Preemergence, 125 g ai/ha) was 70. For the same compound, the Plant response rating (kochia (Kochia scoparia); Preemergence, 250 g ai/ha) was 100, the Plant response rating ([8]; Postemergence, 16 g ai/ha) was 55 and the Plant response rating ([8]; Postemergence, 31 g ai/ha) was 60. The Plant response rating ([8]; Postemergence, 62 g ai/ha) was 70, the Plant response rating ([8]; Postemergence, 125 g ai/ha) was 80 and the Plant response rating ([8]; Postemergence, 250 g ai/ha) was 90. The Plant response rating ([8]; Preemergence, 16 g ai/ha) was 5, the Plant response rating ([8]; Preemergence, 31 g ai/ha) was 25 and the Plant response rating ([8]; Preemergence, 62 g ai/ha) was 20. The Plant response rating ([8]; Preemergence, 125 g ai/ha) was 95, the Plant response rating ([8]; Preemergence, 250 g ai/ha) was 95 and the Plant response rating ([9]; Postemergence, 16 g ai/ha) was 5. For the same compound, the Plant response rating ([9]; Postemergence, 31 g ai/ha) was 5, the Plant response rating ([9]; Postemergence, 62 g ai/ha) was 10 and the Plant response rating ([9]; Postemergence, 125 g ai/ha) was 15. The Plant response rating ([9]; Postemergence, 250 g ai/ha) was 15, the Plant response rating ([9]; Preemergence, 16 g ai/ha) was 0 and the Plant response rating ([9]; Preemergence, 31 g ai/ha) was 0. For the same compound, the Plant response rating ([9]; Preemergence, 62 g ai/ha) was 0, the Plant response rating ([9]; Preemergence, 125 g ai/ha) was 15 and the Plant response rating ([9]; Preemergence, 250 g ai/ha) was 25. The Plant response rating ([10]; Postemergence, 16 g ai/ha) was 5, the Plant response rating ([10]; Postemergence, 31 g ai/ha) was 10 and the Plant response rating ([10]; Postemergence, 62 g ai/ha) was 15. The Plant response rating ([10]; Postemergence, 125 g ai/ha) was 15, the Plant response rating ([10]; Postemergence, 250 g ai/ha) was 15 and the Plant response rating ([10]; Preemergence, 16 g ai/ha) was 0. It also gave a Plant response rating ([10]; Preemergence, 31 g ai/ha) of 0, a Plant response rating ([10]; Preemergence, 62 g ai/ha) of 0 and a Plant response rating ([10]; Preemergence, 125 g ai/ha) of 10. It also gave a Plant response rating ([10]; Preemergence, 250 g ai/ha) of 15.
